Test: xn = mol fraction of the nth substance listed
Settings: 101 kPa, Liquid, Vibrating tube method

CCCC(=O)OC [methyl butanoate] + CCCCCCC
Settings | mass density [kg/m3]
288.15 K, x1 = 0.0478 | 695.54
288.15 K, x1 = 0.094 | 702.79
288.15 K, x1 = 0.1411 | 710.56
288.15 K, x1 = 0.2025 | 720.91
288.15 K, x1 = 0.2476 | 728.91
288.15 K, x1 = 0.2996 | 738.37
288.15 K, x1 = 0.3531 | 748.53
288.15 K, x1 = 0.4112 | 759.9
288.15 K, x1 = 0.4484 | 767.46
288.15 K, x1 = 0.5023 | 778.63
288.15 K, x1 = 0.5526 | 789.52
288.15 K, x1 = 0.5984 | 799.7
288.15 K, x1 = 0.6471 | 810.83
288.15 K, x1 = 0.7077 | 825.2
288.15 K, x1 = 0.7463 | 834.68
288.15 K, x1 = 0.798 | 847.73
288.15 K, x1 = 0.8912 | 872.29
288.15 K, x1 = 0.9493 | 888.46
288.15 K, x1 = 1 | 903.31
298.15 K, x1 = 0.0485 | 686.88
298.15 K, x1 = 0.0876 | 693
298.15 K, x1 = 0.1389 | 701.34
298.15 K, x1 = 0.2122 | 713.65
298.15 K, x1 = 0.2586 | 721.76
298.15 K, x1 = 0.302 | 729.67
298.15 K, x1 = 0.3571 | 739.98
298.15 K, x1 = 0.4019 | 748.57
298.15 K, x1 = 0.4492 | 758.07
298.15 K, x1 = 0.5017 | 768.87
298.15 K, x1 = 0.5573 | 780.67
298.15 K, x1 = 0.5952 | 789.01
298.15 K, x1 = 0.6466 | 800.69
298.15 K, x1 = 0.7063 | 814.61
298.15 K, x1 = 0.7424 | 823.41
298.15 K, x1 = 0.7993 | 837.66
298.15 K, x1 = 0.8623 | 853.85
298.15 K, x1 = 0.9015 | 864.37
298.15 K, x1 = 0.9507 | 878.23
298.15 K, x1 = 1 | 892.31
308.15 K, x1 = 0.063 | 680.36
308.15 K, x1 = 0.117 | 688.78
308.15 K, x1 = 0.187 | 700.22
308.15 K, x1 = 0.3025 | 720.34
308.15 K, x1 = 0.417 | 741.86
308.15 K, x1 = 0.5047 | 759.48
308.15 K, x1 = 0.5651 | 772.28
308.15 K, x1 = 0.5933 | 778.47
308.15 K, x1 = 0.6532 | 791.9
308.15 K, x1 = 0.7045 | 803.77
308.15 K, x1 = 0.7487 | 814.31
308.15 K, x1 = 0.7648 | 818.37
308.15 K, x1 = 0.789 | 824.36
308.15 K, x1 = 0.8514 | 840.37
308.15 K, x1 = 0.8818 | 848.32
308.15 K, x1 = 0.9257 | 860.13
308.15 K, x1 = 0.9603 | 869.83
308.15 K, x1 = 1 | 881.19
318.15 K, x1 = 0.0768 | 673.72
318.15 K, x1 = 0.089 | 675.62
318.15 K, x1 = 0.1535 | 685.7
318.15 K, x1 = 0.2117 | 695.29
318.15 K, x1 = 0.2567 | 702.97
318.15 K, x1 = 0.305 | 711.44
318.15 K, x1 = 0.3544 | 720.36
318.15 K, x1 = 0.4042 | 729.76
318.15 K, x1 = 0.4351 | 735.72
318.15 K, x1 = 0.5011 | 748.89
318.15 K, x1 = 0.5487 | 758.83
318.15 K, x1 = 0.5962 | 768.97
318.15 K, x1 = 0.6971 | 791.66
318.15 K, x1 = 0.7469 | 803.4
318.15 K, x1 = 0.7973 | 815.75
318.15 K, x1 = 0.8454 | 827.9
318.15 K, x1 = 0.8948 | 840.81
318.15 K, x1 = 0.9513 | 856.25
318.15 K, x1 = 1 | 870.06
328.15 K, x1 = 0.044 | 659.99
328.15 K, x1 = 0.0921 | 667.12
328.15 K, x1 = 0.1388 | 674.29
328.15 K, x1 = 0.189 | 682.37
328.15 K, x1 = 0.2611 | 694.33
328.15 K, x1 = 0.3006 | 701.19
328.15 K, x1 = 0.4098 | 721.06
328.15 K, x1 = 0.4532 | 729.42
328.15 K, x1 = 0.5031 | 739.32
328.15 K, x1 = 0.5522 | 749.41
328.15 K, x1 = 0.5979 | 759.1
328.15 K, x1 = 0.6473 | 769.85
328.15 K, x1 = 0.706 | 783.28
328.15 K, x1 = 0.7456 | 792.62
328.15 K, x1 = 0.7926 | 803.93
328.15 K, x1 = 0.86 | 820.85
328.15 K, x1 = 0.9028 | 832.08
328.15 K, x1 = 0.9508 | 845.05
328.15 K, x1 = 1 | 858.8

CCCC(=O)OC [methyl butanoate] + CCCCCCCCC
Settings | mass density [kg/m3]
288.15 K, x1 = 0.0544 | 727.14
288.15 K, x1 = 0.0804 | 729.99
288.15 K, x1 = 0.1647 | 739.66
288.15 K, x1 = 0.2172 | 746.06
288.15 K, x1 = 0.2378 | 748.63
288.15 K, x1 = 0.2963 | 756.43
288.15 K, x1 = 0.3419 | 762.85
288.15 K, x1 = 0.3986 | 771.19
288.15 K, x1 = 0.4425 | 778.04
288.15 K, x1 = 0.5007 | 787.63
288.15 K, x1 = 0.5488 | 796.09
288.15 K, x1 = 0.604 | 806.21
288.15 K, x1 = 0.6553 | 816.39
288.15 K, x1 = 0.6959 | 824.67
288.15 K, x1 = 0.7507 | 836.81
288.15 K, x1 = 0.8114 | 850.96
288.15 K, x1 = 0.8553 | 862.13
288.15 K, x1 = 0.8988 | 873.46
288.15 K, x1 = 0.9507 | 888.13
288.15 K, x1 = 1 | 903.31
298.15 K, x1 = 0.0495 | 718.76
298.15 K, x1 = 0.0998 | 724.04
298.15 K, x1 = 0.1729 | 732.49
298.15 K, x1 = 0.1935 | 734.88
298.15 K, x1 = 0.2473 | 741.54
298.15 K, x1 = 0.3035 | 748.92
298.15 K, x1 = 0.3558 | 756.23
298.15 K, x1 = 0.4462 | 769.69
298.15 K, x1 = 0.5497 | 786.99
298.15 K, x1 = 0.6465 | 805.02
298.15 K, x1 = 0.7509 | 826.86
298.15 K, x1 = 0.7772 | 832.78
298.15 K, x1 = 0.8038 | 839.14
298.15 K, x1 = 0.9052 | 864.6
298.15 K, x1 = 0.953 | 878.19
298.15 K, x1 = 1 | 892.31
308.15 K, x1 = 0.0554 | 711.45
308.15 K, x1 = 0.1002 | 716.1
308.15 K, x1 = 0.1653 | 723.29
308.15 K, x1 = 0.2108 | 728.63
308.15 K, x1 = 0.2545 | 734.04
308.15 K, x1 = 0.3082 | 740.93
308.15 K, x1 = 0.3598 | 748.08
308.15 K, x1 = 0.409 | 755.11
308.15 K, x1 = 0.4594 | 762.76
308.15 K, x1 = 0.4993 | 769.14
308.15 K, x1 = 0.5504 | 777.76
308.15 K, x1 = 0.6001 | 786.6
308.15 K, x1 = 0.6482 | 795.68
308.15 K, x1 = 0.6945 | 804.91
308.15 K, x1 = 0.7463 | 815.78
308.15 K, x1 = 0.7964 | 827.07
308.15 K, x1 = 0.8451 | 838.68
308.15 K, x1 = 0.8948 | 851.33
308.15 K, x1 = 0.9497 | 866.34
308.15 K, x1 = 1 | 881.19
318.15 K, x1 = 0.0234 | 700.32
318.15 K, x1 = 0.0731 | 705.17
318.15 K, x1 = 0.1033 | 708.28
318.15 K, x1 = 0.1552 | 713.83
318.15 K, x1 = 0.1993 | 718.91
318.15 K, x1 = 0.2571 | 725.77
318.15 K, x1 = 0.3123 | 732.79
318.15 K, x1 = 0.3568 | 738.79
318.15 K, x1 = 0.4135 | 746.74
318.15 K, x1 = 0.4555 | 753.07
318.15 K, x1 = 0.5093 | 761.51
318.15 K, x1 = 0.5565 | 769.3
318.15 K, x1 = 0.6043 | 777.7
318.15 K, x1 = 0.6544 | 787.04
318.15 K, x1 = 0.7067 | 797.4
318.15 K, x1 = 0.7541 | 807.31
318.15 K, x1 = 0.8037 | 818.4
318.15 K, x1 = 0.8594 | 831.69
318.15 K, x1 = 0.9068 | 843.76
318.15 K, x1 = 0.9511 | 855.91
318.15 K, x1 = 1 | 870.06
328.15 K, x1 = 0.0272 | 692.57
328.15 K, x1 = 0.0562 | 695.34
328.15 K, x1 = 0.078 | 697.49
328.15 K, x1 = 0.1041 | 700.12
328.15 K, x1 = 0.1502 | 704.97
328.15 K, x1 = 0.2023 | 710.73
328.15 K, x1 = 0.2654 | 718.16
328.15 K, x1 = 0.3073 | 723.36
328.15 K, x1 = 0.3624 | 730.61
328.15 K, x1 = 0.412 | 737.45
328.15 K, x1 = 0.4567 | 744
328.15 K, x1 = 0.5083 | 751.95
328.15 K, x1 = 0.5549 | 759.51
328.15 K, x1 = 0.6157 | 770.1
328.15 K, x1 = 0.6554 | 777.42
328.15 K, x1 = 0.7027 | 786.49
328.15 K, x1 = 0.749 | 795.99
328.15 K, x1 = 0.8511 | 819.04
328.15 K, x1 = 0.9051 | 832.64
328.15 K, x1 = 0.9506 | 844.76
328.15 K, x1 = 1 | 858.8
